The subject of the data set is CCRIS mutagenicity, Ames/micronucleus/aberration tests. In words: CCRIS mutagenicity studies.
Setting [1] is: Test System: AMES SALMONELLA TYPHIMURIUM, Strain/Indicator: TA98, Metabolic Activation: HAMSTER, LIVER, S-9, AROCLOR 1254 (10%), Method: PREINCUBATION
The mark [2] stands for this setting: Test System: AMES SALMONELLA TYPHIMURIUM, Strain/Indicator: TA98, Metabolic Activation: NONE, Method: PREINCUBATION
Where [3] appears, read: Test System: AMES SALMONELLA TYPHIMURIUM, Strain/Indicator: TA98, Metabolic Activation: RAT, LIVER, S-9, AROCLOR 1254 (10%), Method: PREINCUBATION
Setting [4] is: Test System: AMES SALMONELLA TYPHIMURIUM, Strain/Indicator: TA100, Metabolic Activation: HAMSTER, LIVER, S-9, AROCLOR 1254 (10%), Method: PREINCUBATION
Setting [5] is: Test System: AMES SALMONELLA TYPHIMURIUM, Strain/Indicator: TA100, Metabolic Activation: NONE, Method: PREINCUBATION
Where [6] appears, read: Test System: AMES SALMONELLA TYPHIMURIUM, Strain/Indicator: TA100, Metabolic Activation: RAT, LIVER, S-9, AROCLOR 1254 (10%), Method: PREINCUBATION
The mark [7] stands for this setting: Test System: AMES SALMONELLA TYPHIMURIUM, Strain/Indicator: TA1535, Metabolic Activation: HAMSTER, LIVER, S-9, AROCLOR 1254 (10%), Method: PREINCUBATION
Where [8] appears, read: Test System: AMES SALMONELLA TYPHIMURIUM, Strain/Indicator: TA1535, Metabolic Activation: NONE, Method: PREINCUBATION
The mark [9] stands for this setting: Test System: AMES SALMONELLA TYPHIMURIUM, Strain/Indicator: TA1535, Metabolic Activation: RAT, LIVER, S-9, AROCLOR 1254 (10%), Method: PREINCUBATION
The mark [10] stands for this setting: Test System: AMES SALMONELLA TYPHIMURIUM, Strain/Indicator: TA1537, Metabolic Activation: HAMSTER, LIVER, S-9, AROCLOR 1254 (10%), Method: PREINCUBATION
Setting [11] is: Test System: AMES SALMONELLA TYPHIMURIUM, Strain/Indicator: TA1537, Metabolic Activation: NONE, Method: PREINCUBATION
Where [12] appears, read: Test System: AMES SALMONELLA TYPHIMURIUM, Strain/Indicator: TA1537, Metabolic Activation: RAT, LIVER, S-9, AROCLOR 1254 (10%), Method: PREINCUBATION

Active and inactive are the calls of the source. How the calls were made is not given here.

With `CCCCCNCCCCC`, the mutagenic call is, setting by setting: under setting [1], “inactive; negative”; under setting [2], “inactive; negative”; under setting [3], “inactive; negative”; under setting [4], “inactive; negative”; under setting [5], “inactive; negative”; under setting [6], “inactive; negative”. Further, the mutagenic call by setting is: under setting [7], “inactive; negative”; under setting [8], “inactive; negative”; under setting [9], “inactive; negative”; under setting [10], “inactive; negative”; under setting [11], “inactive; negative”; under setting [12], “inactive; negative”.
`C[C@]12CC[C@H]3C(=CCc4cc(O)ccc43)[C@@H]1CCC2=O`: the mutagenic call (Test System: UDS RAT HEPATOCYTES, Strain/Indicator: THY INCORP (18-20 HR), Metabolic Activation: NONE, Method: LIQUID SCINTILLATION COUNTING) was “inactive; negative”.
Consider `C=CC(C)(C)c1cc2cc3c(cc2oc1=O)OC(C(C)(C)O)C3` (stereo not drawn), for which the mutagenic call (Test System: AMES SALMONELLA TYPHIMURIUM, Strain/Indicator: TA92, Metabolic Activation: NONE, Method: SPOT TEST) is “inactive; negative”; the mutagenic call (Test System: AMES SALMONELLA TYPHIMURIUM, Strain/Indicator: TA92, Metabolic Activation: RAT, LIVER, S-9, AROCLOR 1254, Method: SPOT TEST) is “inactive; negative”; the mutagenic call (Test System: AMES SALMONELLA TYPHIMURIUM, Strain/Indicator: TA94, Metabolic Activation: NONE, Method: SPOT TEST) was “inactive; negative”; the mutagenic call (Test System: AMES SALMONELLA TYPHIMURIUM, Strain/Indicator: TA94, Metabolic Activation: RAT, LIVER, S-9, AROCLOR 1254, Method: SPOT TEST) was “inactive; negative”; the mutagenic call (Test System: AMES SALMONELLA TYPHIMURIUM, Strain/Indicator: TA97, Metabolic Activation: NONE, Method: SPOT TEST) is “active; positive”; the mutagenic call (Test System: AMES SALMONELLA TYPHIMURIUM, Strain/Indicator: TA97, Metabolic Activation: RAT, LIVER, S-9, AROCLOR 1254, Method: SPOT TEST) was “inactive; negative”. For the same compound, the mutagenic call reads like this: (Test System: AMES SALMONELLA TYPHIMURIUM, Strain/Indicator: TA98, Metabolic Activation: NONE, Method: SPOT TEST) “active; positive”; (Test System: AMES SALMONELLA TYPHIMURIUM, Strain/Indicator: TA98, Metabolic Activation: RAT, LIVER, S-9, AROCLOR 1254, Method: SPOT TEST) “inactive; negative”; (Test System: AMES SALMONELLA TYPHIMURIUM, Strain/Indicator: TA100, Metabolic Activation: NONE, Method: SPOT TEST) “active; positive”; (Test System: AMES SALMONELLA TYPHIMURIUM, Strain/Indicator: TA100, Metabolic Activation: RAT, LIVER, S-9, AROCLOR 1254, Method: SPOT TEST) “inactive; negative”; (Test System: AMES SALMONELLA TYPHIMURIUM, Strain/Indicator: TA102, Metabolic Activation: NONE, Method: SPOT TEST) “inactive; negative”; (Test System: AMES SALMONELLA TYPHIMURIUM, Strain/Indicator: TA102, Metabolic Activation: RAT, LIVER, S-9, AROCLOR 1254, Method: SPOT TEST) “inactive; negative”.
In the case of `CCCCCCC(C)COC(=O)c1ccccc1C(=O)OCC(C)CCCCCC` (stereo not drawn), the mutagenic call is, setting by setting: under setting [1], “inactive; negative”; under setting [2], “inactive; negative”; (Test System: AMES SALMONELLA TYPHIMURIUM, Strain/Indicator: TA98, Metabolic Activation: RAT LIVER S-9, AROCLOR, Method: PREINCUBATION) “inactive; negative”; under setting [3], “inactive; negative”; under setting [4], “inactive; negative”; under setting [5], “inactive; negative”. Further, the mutagenic call runs as follows: (Test System: AMES SALMONELLA TYPHIMURIUM, Strain/Indicator: TA100, Metabolic Activation: RAT LIVER S-9, AROCLOR, Method: PREINCUBATION) “inactive; negative”; under setting [6], “inactive; negative”; under setting [7], “inactive; negative”; under setting [8], “inactive; negative”; (Test System: AMES SALMONELLA TYPHIMURIUM, Strain/Indicator: TA1535, Metabolic Activation: RAT LIVER S-9, AROCLOR, Method: PREINCUBATION) “inactive; negative”; under setting [9], “inactive; negative”. For the same compound, the mutagenic call by setting is: under setting [10], “inactive; negative”; under setting [11], “inactive; negative”; (Test System: AMES SALMONELLA TYPHIMURIUM, Strain/Indicator: TA1537, Metabolic Activation: RAT LIVER S-9, AROCLOR, Method: PREINCUBATION) “inactive; negative”; under setting [12], “inactive; negative”; (Test System: MOUSE LYMPHOMA, Strain/Indicator: L5178Y (TK+/TK-), Metabolic Activation: NONE, Method: SUSPENSION/PLATE) “inactive; negative”; (Test System: MOUSE LYMPHOMA, Strain/Indicator: L5178Y (TK+/TK-), Metabolic Activation: RAT LIVER S-9, Method: SUSPENSION/PLATE) “inactive; negative”.

Source of the values: PubChem BioAssay AID1259407 (Chemical Carcinogenesis Research Information System (CCRIS), 2018).
